In patent US20190225650A1, “PEPTIDOMIMETIC MACROCYCLES AND USE THEREOF IN REGULATING HIF1ALPHA” (AILERON THERAPEUTICS, INC., priority 2013, published 2019):
Bridge positions count the residues as written; N and C are the ends. Square brackets hold non-standard residues; d marks the D form. Peptide text beside a SMILES is read from it. R8 = C=CCCCCCC[C@@](C)(N)C(=O)O; S5 = C=CCCC[C@](C)(N)C(=O)O; Nle = CCCC[C@H](N)C(=O)O

Biological target: T1, flag-tagged HIF1α (AA 786-826) / His6-tagged p300 (AA 323-423) complex (Homo sapiens, UniProt Q09472)
T1 construct: His6-tagged p300 (AA 323-423); made in house; host or cells: E. coli (pETDuet vector)
Assay: HIF1α p300 displacement assay (TR FRET, +CHAPS)
Type: binding
Conditions: read-out: IC50 (nM) (HIF1α_p300 Displacement + CHAPS)
Procedure: The ability of peptides to displace HIF1α c-terminal trans-activation domain from p300-CH was measured by a TR FRET assay. A complex of flag-tagged HIF1α (AA 786-826) and His6-tagged p300 (AA 323-423) was co-expressed using pETDuet vector (EMDMillipore, Bellrica Mass.) and purified from E. coli in the presence of 0.1 mM ZnSO4. The complex was diluted to 300 nM final in complete assay media and competitor peptides were added. The complete assay media contained 150 mM NaCl (Sigma +S5150 or equivalent), 20 mM HEPES pH 7.4 (Boston Bioproducts, Ashland, Mass.; #BB-2076), 7.5 mM CHAPS (Thermo #28300 or equivalent), and 1 mM DTT. Protein and peptide were incubated at room temperature for 1 hour before the addition of anti-Flag-K and anti-6×HIS-D2 (CisBio, Bedford Mass.) HTRF reconstitution buffer (50 mM Phosphate pH 7, 0.8 Potassium Flouride, BSA 0.2%)^1 to a final concentration of 0.5 μM and 4 nM respectively. The reaction continued for an additional two hours at room temperature. The reaction was read on a TECAN F500 plate reader with settings recommended by CisBio. The ratio of donor to acceptor fluorescence was calculated. The resulting data was analyzed with Graphpad Prism 5.0. IC50 values were calculated for both proteins using the One Site Fit-LogIC50 equation and presented in the column “IC50 (nM) (HIF1α_p300 Displacement+CHAPS)” of Table 6. ^1 Cisbio USA, Bedford, Mass.; 61HISDLB (lot 007A), 61FG2KLB (024A), HTRF Buffer (62RB3RDF)

Row | Compound | IC50 [nM]
1 | CCCC[C@@H]1NC(=O)[C@](C)(NC(=O)[C@@H](NC(=O)[C@H](CCC(=O)O)NC(=O)[C@H](CCC(=O)O)NC(=O)[C@H](CC(=O)O)NC(=O)[C@@H](NC(=O)[C@H](CC(N)=O)NC(=O)[C@@H](NC(=O)[C@]2(C)CCCC=CCCCCCC[C@@](C)(NC(=O)[C@H](CCC(=O)O)NC(=O)CNC(=O)[C@H](CCC(N)=O)NC(=O)[C@H](CC(C)C)NC(=O)[C@H](CC(C)C)NC(C)=O)C(=O)N[C@@H](CC(C)C)C(=O)N[C@@H](CC(C)C)C(=O)N[C@@H](CCCNC(=N)N)C(=O)N[C@@H](C)C(=O)N[C@@H](CC(C)C)C(=O)N[C@@H](CC(=O)O)C(=O)N2)C(C)C)[C@@H](C)CC)C(C)C)CCCCCCC=CCCC[C@@](C)(C(=O)NCC(N)=O)NC(=O)[C@H](CCC(=O)O)NC(=O)[C@H]([C@@H](C)CC)NC(=O)[C@H](C(C)C)NC(=O)[C@H](CC(C)C)NC(=O)[C@H](CO)NC1=O [SP-317] (Ac-LLQGE[R8]LLRALD[S5]VNIDEEV[R8][Nle]SLVIE[S5]G-NH2; staple 6-13, 21-28) | > 700
2 | CCCC[C@@H]1NC(=O)[C@H](CC(C)C)NC(=O)[C@](C)(NC(=O)[C@H](CCC(=O)O)NC(=O)[C@H](CCC(=O)O)NC(=O)[C@H](CC(=O)O)NC(=O)[C@@H](NC(=O)[C@H](CC(N)=O)NC(=O)[C@@H](NC(=O)[C@H](CCC(N)=O)NC(=O)[C@]2(C)CCCC=CCCC[C@](C)(NC(=O)[C@H](CC(C)C)NC(=O)[C@H](CCC(=O)O)NC(=O)[C@H](CCC(=O)O)NC(=O)CNC(=O)[C@H](CCC(N)=O)NC(=O)[C@H](CC(C)C)NC(=O)[C@H](CC(C)C)NC(C)=O)C(=O)N[C@@H](CCCNC(=N)N)C(=O)N[C@@H](C)C(=O)N[C@@H](CC(C)C)C(=O)N2)C(C)C)[C@@H](C)CC)CCCCCCC=CCCC[C@@](C)(C(=O)N[C@@H](CCCC)C(=O)NCC(N)=O)NC(=O)[C@H]([C@@H](C)CC)NC(=O)[C@H](C(C)C)NC(=O)[C@H](CC(C)C)NC(=O)[C@H](CO)NC1=O [SP-331] (Ac-LLQGEEL[S5]RAL[S5]QVNIDEE[R8]L[Nle]SLVI[S5][Nle]G-NH2; staple 8-12, 20-27) | > 700
3 | CCCC[C@H](NC(=O)[C@]1(C)CCCC=CCCC[C@](C)(NC(=O)[C@H](CCCC)NC(=O)[C@H](CC(C)C)NC(=O)[C@@H](NC(=O)[C@H](C)NC(=O)[C@H](C)NC(=O)[C@H](C)NC(=O)[C@@H](NC(=O)[C@H](CC(N)=O)NC(=O)[C@@H](NC(=O)[C@]2(C)CCCC=CCCCCCC[C@@](C)(NC(=O)[C@H](C)NC(=O)CNC(=O)[C@H](CCC(N)=O)NC(=O)[C@H](CC(C)C)NC(=O)[C@H](CC(C)C)NC(C)=O)C(=O)N[C@@H](CC(C)C)C(=O)N[C@@H](CC(C)C)C(=O)N[C@@H](CCCNC(=N)N)C(=O)N[C@@H](C)C(=O)N[C@@H](CC(C)C)C(=O)N[C@@H](C)C(=O)N2)C(C)C)[C@@H](C)CC)C(C)C)C(=O)N[C@@H](CC(C)C)C(=O)N[C@@H](C(C)C)C(=O)N[C@@H]([C@@H](C)CC)C(=O)N1)C(N)=O [SP-348] (Ac-LLQGA[R8]LLRALA[S5]VNIAAAVL[Nle][S5]LVI[S5][Nle]-NH2; staple 6-13, 23-27) | > 700
4 | CCCC[C@H](NC(=O)[C@H](CCC(=O)O)NC(=O)[C@]1(C)CCCC=CCCCCCC[C@@](C)(NC(=O)[C@H](C)NC(=O)[C@H](C)NC(=O)[C@@H](NC(=O)[C@H](CC(N)=O)NC(=O)[C@@H](NC(=O)[C@]2(C)CCCC=CCCCCCC[C@@](C)(NC(=O)[C@H](C)NC(=O)CNC(=O)[C@H](CCC(N)=O)NC(=O)[C@H](CC(C)C)NC(=O)[C@H](CC(C)C)NC(C)=O)C(=O)N[C@@H](CC(C)C)C(=O)N[C@@H](CC(C)C)C(=O)N[C@@H](CCCNC(=N)N)C(=O)N[C@@H](C)C(=O)N[C@@H](CC(C)C)C(=O)N[C@@H](C)C(=O)N2)C(C)C)[C@@H](C)CC)C(=O)N[C@@H](C(C)C)C(=O)N[C@@H](CC(C)C)C(=O)N[C@@H](CCCC)C(=O)N[C@@H](CO)C(=O)N[C@@H](CC(C)C)C(=O)N[C@@H](C(C)C)C(=O)N1)C(N)=O [SP-356] (Ac-LLQGA[R8]LLRALA[S5]VNIAA[R8]VL[Nle]SLV[S5]E[Nle]-NH2; staple 6-13, 19-26) | > 700

Further lines, results first:

Row | IC50 [nM] | Compound
5 | > 700 | CCCC[C@@H]1NC(=O)[C@](C)(NC(=O)[C@@H](NC(=O)[C@H](CCC(=O)O)NC(=O)[C@H](CCC(=O)O)NC(=O)[C@H](CC(=O)O)NC(=O)[C@@H](NC(=O)[C@H](CC(N)=O)NC(=O)[C@@H](NC(=O)[C@H](CCC(N)=O)NC(=O)[C@H](CC(=O)O)NC(=O)[C@H](CC(C)C)NC(=O)[C@]2(C)CCCC=CCCC[C@](C)(NC(=O)[C@H](CCC(=O)O)NC(=O)CNC(=O)[C@H](CCC(N)=O)NC(=O)[C@H](CC(C)C)NC(=O)[C@H](CC(C)C)NC(C)=O)C(=O)N[C@@H](CC(C)C)C(=O)N[C@@H](CC(C)C)C(=O)N[C@@H](CCCNC(=N)N)C(=O)N2)C(C)C)[C@@H](C)CC)C(C)C)CCCCCCC=CCCC[C@@](C)(C(=O)NCC(N)=O)NC(=O)[C@H](CCC(=O)O)NC(=O)[C@H]([C@@H](C)CC)NC(=O)[C@H](C(C)C)NC(=O)[C@H](CC(C)C)NC(=O)[C@H](CO)NC1=O [SP-315] (Ac-LLQGE[S5]LLR[S5]LDQVNIDEEV[R8][Nle]SLVIE[S5]G-NH2; staple 6-10, 21-28)
6 | > 700 | CCCC[C@@H]1NC(=O)[C@](C)(NC(=O)[C@@H](NC(=O)[C@H](CCC(=O)O)NC(=O)[C@H](CCC(=O)O)NC(=O)[C@H](CC(=O)O)NC(=O)[C@@H](NC(=O)[C@H](CC(N)=O)NC(=O)[C@@H](NC(=O)[C@H](CCC(N)=O)NC(=O)[C@]2(C)CCCC=CCCC[C@](C)(NC(=O)[C@H](CC(C)C)NC(=O)[C@H](CCC(=O)O)NC(=O)[C@H](CCC(=O)O)NC(=O)CNC(=O)[C@H](CCC(N)=O)NC(=O)[C@H](CC(C)C)NC(=O)[C@H](CC(C)C)NC(C)=O)C(=O)N[C@@H](CCCNC(=N)N)C(=O)N[C@@H](C)C(=O)N[C@@H](CC(C)C)C(=O)N2)C(C)C)[C@@H](C)CC)C(C)C)CCCCCCC=CCCC[C@@](C)(C(=O)NCC(N)=O)NC(=O)[C@H](CCC(=O)O)NC(=O)[C@H]([C@@H](C)CC)NC(=O)[C@H](C(C)C)NC(=O)[C@H](CC(C)C)NC(=O)[C@H](CO)NC1=O [SP-316] (Ac-LLQGEEL[S5]RAL[S5]QVNIDEEV[R8][Nle]SLVIE[S5]G-NH2; staple 8-12, 21-28)
7 | > 700 | CCCC[C@@H]1NC(=O)[C@H](CC(C)C)NC(=O)[C@](C)(NC(=O)[C@H](CCC(=O)O)NC(=O)[C@H](CCC(=O)O)NC(=O)[C@H](CC(=O)O)NC(=O)[C@@H](NC(=O)[C@H](CC(N)=O)NC(=O)[C@@H](NC(=O)[C@H](CCC(N)=O)NC(=O)[C@H](CC(=O)O)NC(=O)[C@H](CC(C)C)NC(=O)[C@H](C)NC(=O)[C@H](CCCNC(=N)N)NC(=O)[C@]2(C)CCCC=CCCC[C@](C)(NC(=O)[C@H](CCC(N)=O)NC(=O)[C@H](CC(C)C)NC(=O)[C@H](CC(C)C)NC(C)=O)C(=O)N[C@@H](CCC(=O)O)C(=O)N[C@@H](CCC(=O)O)C(=O)N[C@@H](CC(C)C)C(=O)N2)C(C)C)[C@@H](C)CC)CCCCCCC=CCCC[C@@](C)(C(=O)N[C@@H](CCCC)C(=O)NCC(N)=O)NC(=O)[C@H]([C@@H](C)CC)NC(=O)[C@H](C(C)C)NC(=O)[C@H](CC(C)C)NC(=O)[C@H](CO)NC1=O [SP-329] (Ac-LLQ[S5]EEL[S5]RALDQVNIDEE[R8]L[Nle]SLVI[S5][Nle]G-NH2; staple 4-8, 20-27)
8 | 400 to 700 | CCCC[C@H](NC(=O)[C@H](CCC(=O)O)NC(=O)[C@@H](NC(=O)[C@@H](NC(=O)[C@H](CC(C)C)NC(=O)[C@H](CO)NC(=O)[C@H](CCCC)NC(=O)[C@H](CC(C)C)NC(=O)[C@@H](NC(=O)[C@H](CCC(=O)O)NC(=O)[C@H](CCC(=O)O)NC(=O)[C@H](CC(=O)O)NC(=O)[C@@H](NC(=O)[C@H](CC(N)=O)NC(=O)[C@@H](NC(=O)[C@H](CCC(N)=O)NC(=O)[C@H](CC(=O)O)NC(=O)[C@H](CC(C)C)NC(=O)[C@H](C)NC(=O)[C@H](CCCNC(=N)N)NC(=O)[C@H](CC(C)C)NC(=O)[C@H](CC(C)C)NC(=O)[C@H](CCC(=O)O)NC(=O)[C@H](CCC(=O)O)NC(=O)CNC(=O)[C@H](CCC(N)=O)NC(=O)[C@H](CC(C)C)NC(=O)[C@H](CC(C)C)NC(C)=O)C(C)C)[C@@H](C)CC)C(C)C)C(C)C)[C@@H](C)CC)C(N)=O [SP-333] (Ac-LLQGEELLRALDQVNIDEEVL[Nle]SLVIE[Nle]-NH2)
9 | > 700 | CCCC[C@H](NC(=O)[C@H](CC(C)C)NC(=O)[C@@H](NC(=O)[C@H](CCC(=O)O)NC(=O)[C@H](CCC(=O)O)NC(=O)[C@H](CC(=O)O)NC(=O)[C@@H](NC(=O)[C@H](CC(N)=O)NC(=O)[C@@H](NC(=O)[C@H](CCC(N)=O)NC(=O)[C@H](CC(=O)O)NC(=O)[C@H](CC(C)C)NC(=O)[C@H](C)NC(=O)[C@H](CCCNC(=N)N)NC(=O)[C@]1(C)CCCC=CCCC[C@](C)(NC(=O)[C@H](CCC(N)=O)NC(=O)[C@H](CC(C)C)NC(=O)[C@H](CC(C)C)NC(C)=O)C(=O)N[C@@H](CCC(=O)O)C(=O)N[C@@H](CCC(=O)O)C(=O)N[C@@H](CC(C)C)C(=O)N1)C(C)C)[C@@H](C)CC)C(C)C)C(=O)N[C@@]1(C)CCCC=CCCC[C@@](C)(C(=O)N[C@@H](CCCC)C(=O)N[C@@H](C)C(=O)N[C@@H](CC(C)C)C(N)=O)NC(=O)[C@H]([C@@H](C)CC)NC(=O)[C@H](C(C)C)NC(=O)[C@H](CC(C)C)NC1=O [SP-370] (Ac-LLQ[S5]EEL[S5]RALDQVNIDEEVL[Nle][S5]LVI[S5][Nle]AL-NH2; staple 4-8, 23-27)
